Measurements as given in ChEMBL document CHEMBL1127186, “Probing a catalytic antibody active site using spin-labelled haptens” (Bioorg Med Chem Lett, 1993).

Assays:
[1] = Dissociation constant from ESR titration experiments; assay type: physicochemical
[2] = Kinetic parameter of antibody 48G7 in 10 mM Tris HCl, 50 mM NaCl, pH 8.27
[3] = Compound was evaluated for the inhibition of antibody (Antibody 48G7) catalyzed reaction

SMILES	Kd [1] [µM]	k cat [2] [s⁻¹]	Km [2] [µM]	Ki [3] [µM]
CC1(C)CC(OP(=O)(O)Oc2ccc([N+](=O)[O-])cc2)C(C)(C)N1[O] (stereo not given)	6.4			
CC(=O)Oc1ccc([N+](=O)[O-])cc1		0.0633		
COC(=O)Oc1ccc([N+](=O)[O-])cc1		0.123	430	
CC1(C)CC(OP(=O)(O)Oc2ccc([N+](=O)[O-])cc2)CC(C)(C)N1[O]	4.3			
COC(=O)CCCOC(=O)Oc1ccc([N+](=O)[O-])cc1		0.437	360	
COC(=O)CCCC(=O)Oc1ccc([N+](=O)[O-])cc1		0.367	300	
Cc1cccc(P(=O)(O)O)c1[N+](=O)[O-] [METHYLNITROPHENYLPHOSPHONATE]				0.56
